# Results: US20240277790A1, “RECOMBINANT BACULOVIRUSES, ALPHAVIRUS VIRUS-LIKE REPLICON PARTICLES PRODUCED THEREOF AND THEIR USES” (priority 2023, published 2024)
# Tested on: mos-CHIK-VRPs
# Assay: VRP-based antiviral drug assay (luciferase) on Vero cells
# Type: cell-based, CHIKV
# Conditions: Chikungunya virus, Vero cells, 2,500 IU VRPs/well, 1 hour + 5 hours at 34° C., read-out: IC50 of inhibition of VRP infection
# Method: Luciferase activity in the mos-CHIK-VRPs infected Vero cells was measured using a commercial luciferase assay kit (Promega) in accordance with the manufacturer's instructions. Signals reflecting the luciferase activity was read by a microplate reader (BioTek).
# Suramin and 6-azauridine (6-AU) (both from Sigma-Aldrich) were dissolved in water to prepare the stock solutions (suramin, 50 mg/ml, 35 mM; 6-AU, 50 mg/ml, 200 mM) and then stored at −20° C. until use. Vero cells were seeded at a density of 1.5×10^4 cells/well (96 well white/clear bottom plate), and then infected with 2,500 IU VRPs/well in the presence of serially diluted suramin or 6-AU in MEM for 1 hour at 34° C. The suramin- or 6-AU-treated cells were then grown in a 5% FBS medium containing the corresponding concentrations of suramin or 6-AU for another 5 hours at 34° C., then VRP activity was measured by luciferase assay.
row,Compound,IC50
1,Cc1ccc(C(=O)Nc2ccc(S(=O)(=O)O)c3cc(S(=O)(=O)O)cc(S(=O)(=O)O)c23)cc1NC(=O)c1cccc(NC(=O)Nc2cccc(C(=O)Nc3cc(C(=O)Nc4ccc(S(=O)(=O)O)c5cc(S(=O)(=O)O)cc(S(=O)(=O)O)c45)ccc3C)c2)c1 [suramin],81.3 µM
2,"O=c1cnn([C@@H]2O[C@H](CO)[C@@H](O)[C@H]2O)c(=O)[nH]1 [6-AU, 6-azauridine]",1.29 mg/L
